Experiments:
[1] = system: Human NCI-H929 (H929) multiple myeloma cells; assay: H929 human xenograft model, tasquinimod with bortezomib or dexamethasone (Example 1); format: in vivo; conditions: s.c. H929 in NSG mice; TQ 30 mg/kg drinking water; VEL 0.5 mg/kg i.v. every 4 days; compared to control mice; FIG. 1
Procedure: Human NCI-H929 (H929) multiple myeloma cells were inoculated subcutaneously in NSG mice. Tumour-bearing mice were treated with vehicle (VC), tasquinimod (TQ) 30 mg/kg ad lib in the drinking water starting when there were palpable tumors (i.e. day 18 after tumor inoculation); bortezomib (VEL), 0.5 mg/kg, i.v. every 4 days; dexamethasone (DEX), 10 mg/kg, i.p., 5 days on, 2 days off; or the combinations (TQ+DEX) and (TQ+VEL), and. Statistics: Two-way ANOVA; p-values VC vs TQ p=0.0009, VC vs VEL p=0.041, VC vs DEX p=0.0081, DEX vs DEX+TQ ns, TQ vs TQ+VEL p=0.0002, VEL vs VEL+TQ p=0.0361. The results are illustrated in FIG. 1.

MM1.S cells = assay: Human MM1.S xenograft model of multiple myeloma, tasquinimod with lenalidomide (Example 2); format: in vivo; conditions: s.c. MM1.S in NSG mice; TQ 30 mg/kg/day drinking water; LEN 5 mg/kg oral gavage; from day 14; compared to control mice; FIG. 2
Procedure: The effect of tasquinimod in combination with lenalidomide was studied in a human MM1.S model of multiple myeloma. The MM1.S cells were established from a patient with IgA myeloma with characteristics typical of human myeloma cells (Greenstein et al., Exp Hematol. 2003 April; 31(4):271-82). MM1.S model was established by subcutaneous inoculation of 5×10^6 MM1.S cells into NSG mice. Treatment with tasquinimod (TQ), 30 mg/kg/day in the drinking water; lenalidomide (LEN), 5 mg/kg via oral gavage, 5 consecutive days with 2 days breaks until the endpoint, or the combination of tasquinimod and lenalidomide (TQ+LEN), started when the tumors were measurable (day 14 after tumor cell injection). Tumor size was monitored using a caliper and tumor volume was calculated. Differences between groups were evaluated by using two-way ANOVA; p-values: TQ vs TQ+LEN p=0.0001, LEN vs LEN+TQ p=0.0183. The results are illustrated in FIG. 2.

In the case of `CC(C)C[C@H](NC(=O)[C@H](Cc1ccccc1)NC(=O)c1cnccn1)B(O)O` [bortezomib, [(1R)-3-methyl-1-[[(2S)-3-phenyl-2-(pyrazine-2-carbonylamino)propanoyl]amino]butyl]-boronic acid], the “multiple myeloma tumor growth (tumour area), result in words” value [1] is reported as “reduced the multiple myeloma tumor growth”.

In the case of `COc1cccc2c1c(O)c(C(=O)N(C)c1ccc(C(F)(F)F)cc1)c(=O)n2C` [tasquinimod, 4-hydroxy-5-methoxy-N,1-dimethyl-2-oxo-N-[4-(trifluoromethyl)phenyl]-1,2-dihydroquinoline-3-carboxamide], the “multiple myeloma tumor growth (tumour area), result in words” value [1] is reported as “reduced the multiple myeloma tumor growth” and the “multiple myeloma growth (tumour volume), result in words” value (MM1.S cells) is reported as “reduced the multiple myeloma growth”.

In the case of `Nc1cccc2c1CN(C1CCC(=O)NC1=O)C2=O` (stereo not shown) [lenalidomide, 3-(4-amino-1-oxoisoindolin-2-yl)piperidine-2,6-dione], the “multiple myeloma growth (tumour volume), result in words” value (MM1.S cells) is reported as “reduced the multiple myeloma growth”.
